Here are results for two compounds from US8466311B2, “Neuroprotective compositions and methods” (Sanford-Burnham Medical Research Institute, priority 2006, dated 2013).

Entries after “also recorded” stand apart in the source; their conditions may differ.

In one assay the test system is HO-1 and γ-GCS. Nature of the assay: Phase 2 enzyme induction in brain (RT-PCR). The assay is classed as in vivo, mouse. The following applies: food containing 0.03% CA for a week. The procedure:
RT-PCR. In order to examine phase 2 gene induction by CA in PC12h cells and brain lysates, RT-PCR of total RNA from cortical cultures was performed using the following primer pairs (Hosoya et al., J. Bioi. Chern. 29:27244-27250, 2005; Kobayashi et al., Mol. Cell. Biol. 26:221-229, 2006): CypA (89 bp), 5′-ACAGGTCCTGGCATCTTGTC-3′ (SEQ ID NO: 18)(sense) and 5′-[…] -3′ (SEQ ID NO: 19)(antisense); H0-1 (284 bp), 5′-CAGTCGCCTCCAGAGTTTCC -3′ (SEQ ID NO: 20)(sense) and 5′- TACAAGGAGGCCATCACCAGC-3′ (SEQ ID NO: 21)(antisense); GCL-M (280 bp), 5′- CTGCTAAACTGTTCATTGTAGG-3′ (SEQ ID NO: 22)(sense) and 5′- CTA TTG GGT TIT ACC TGT G-3′ (SEQ ID NO: 23)(antisense); GCL-C (213 bp), 5′- GTC TIC AGG TGA ACA TIC CAA GC-3′ (SEQ ID NO: 24)(sense) and 5′- TGTTCTTCAGGGGCTCCAGTC-3′ (SEQ 10 NO: 25)(antisense); and NQO1 (212 bp), 5′- GTG TAC AGC ATI GGC CAC AC-3′ (SEQ 10 NO: 26)(sense) and 5′AAATGATGGCCCACAGAAAG-3′ (SEQ ID NO: 27)(antisense).
Mice were allowed free access to food containing 0.03% CA for a week. Their brains were then removed, and extracts were prepared and measured for GSH and GSSG levels. Under these conditions, CA increased both total GSH+GSSG and the ratio of GSH/GSSG (FIG. 6). […] Therefore, we concluded that orally-administered CA could not only reach the brain but was also effective in activating potentially neuroprotective pathways.

For assay [1], the system named is GSH. Nature of the assay: Brain GSH and GSSG after feeding CA. The following applies: food containing 0.03% CA for a week. Format: in vivo, mouse. The procedure: Mice were fed 0.03% CA for 1 week, and their brains were then removed, lysed and subjected to GSH and GSSG measurement.
Measurement of brain GSH. After exsanguination via heart puncture under ether anesthesia, mouse brains were removed and quickly frozen in liquid nitrogen. We ruled out GSH as a contaminant from blood vessels by HPLC analysis of blood components in the brain lysates.
The frozen brains were lysed with 1% sulfosalicylic acid on ice for 10 min, and total glutathione (reduced and oxidized) was determined as described previously (Sagara et al., 2002). Briefly, after the lysates had been incubated on ice for 10 min, the supernatants were collected after centrifugation in Eppendorf microfuge tubes. Upon neutralization of each supernatant with triethanolamine, the total glutathione (reduced and oxidized) concentration was determined. Pure GSH was used to obtain the standard curve. For the determination of oxidized GSH, the method of Griffith using 2-vinylpyridine was used to deplete the reduced GSH.
Mice were allowed free access to food containing 0.03% CA for a week. Their brains were then removed, and extracts were prepared and measured for GSH and GSSG levels. Under these conditions, CA increased both total GSH+GSSG and the ratio of GSH/GSSG (FIG. 6). […]

For assay [2], the target named is T1, bovine serum albumin (BSA) (Bos taurus, UniProt P02769).
T1 construct: purchased WAKO Chemicals Inc. (Tokyo, Japan) or Sigma (St. Louis, Mo.)
Put plainly: Adduct formation with free cysteine of BSA (streptavidin blot). The assay is classed as binding. The following applies: NEM pretreatment.
Protocol: We tested whether the free cysteine of bovine serum albumin (BSA) could form an adduct with NEPP compounds. If carbon #11 on the NEPP compounds binds to this free cysteine of BSA, then pretreatment with N-ethylmaleimide (NEM), in irreversible thiol alkylating agent, would abolish this binding. […] With streptavidin as a probe, we could then detect proteins bound to NEPP6-biotin. In order to study thiols as targets of NEPP binding, BSA (1 μg per lane) was incubated with various concentrations (0-1000 μM) of N-ethylmaleimide (NEM) for 30 minutes at room temperature. Vehicle or NEPP6-biotin (10 μM) in phosphate-buffered saline (PBS) was added and the mixture was incubated at room temperature for 5 h, subjected to sodium dodecyl sulfate polyacrylamide gel electrophoresis (SDS-PAGE), and probed with peroxidase-conjugated streptavidin. The gel was also stained with Coomassie brilliant blue.

The subject of assay [3] is GSH. Put plainly: Total GSH levels in cortical cultures. The assay is classed as cell-based. The following applies: cortical cultures, control 46.8±4.5 nmol/mg protein. The protocol: Cell cultures, transfection, and glutathione (GSH) measurement. […] Transfection was performed with Lipofectamine 2000 (Invitrogen). In the reporter gene assays, firefly luciferase activity in cell lysates was measured with a luminometer (Promega). Total GSH (reduced and oxidized) was determined as described (Lee et al., Biochem. Biophys. Res. Commun. 280:286-292, 2001).
One caveat to the mechanism of NEPP and other electrophilic compounds acting at the level of Keap1 to induce HO-1 transcription is that NEPP could potentially react indiscriminately with other thiol-containing compounds in cells. To approach this question, we assessed cellular glutathione (GSH) levels to determine whether NEPP11 would affect this abundant antioxidant thiol. Nepp11 or N-ethylmaleimide (NEM) was added at t=0 and levels of total GSH were measured at the indicated times. GSH content of control cortical cultures (set arbitrarily at 100%) was 46.8±4.5 nmol/mg protein. […] In fact, this scenario seems likely, because the Keap1/Nrf2 pathway regulates the expression of γ-GCL in addition to HO-1 (Itoh et al., Mol. Cell. Biol. 24:36-45, 2004). […]
Transfections were performed with Lipofectamine 2000 (Invitrogen), and firefly luciferase activity in cell lysates was measured with a luminometer in the reporter gene assays (Promega).

The test system of the next assay is ARE probe. Put plainly: EMSA with biotin-labeled ARE probe, HT22 nuclear lysates. The assay is classed as cell-based. To be noted: HT22 cells, NEPP11 1 μM, 8 h. The procedure:
Electrophoretic mobility shift assays (EMSAs). Double-stranded antioxidant-responsive elements (AREs) were labeled by using a biotin 3′-end DNA labeling kit (Pierce). Nuclear lysates were incubated with the labeled probe for 20 min at room temperature, resolved on an 8% native polyacrylamide gel, and transferred to Hybond-N^+ (Amersham Pharmacia). Signals were visualized with peroxidase-conjugated streptavidin (Pierce).
To confirm that NEPP11 leads to an increase in transcription factors, including Nrf2, that bind to the ARE, we performed EMSAs. HT22 cells were incubated for 8 h with vehicle or NEPP11 (1 μM). EMSAs were performed by using 10 μg of nuclear lysates per lane and a biotin-labeled ARE probe. In one lane, anti-Nrf2 antibody (100×) was added to supershift Nrf2 protein binding to ARE probe. In another lane, an excess amount of non-labeled probe was added to the sample to compete out the labeled ARE probe from binding to proteins in the nuclear lysates. […] The band representing the labeled ARE probe was shifted in the presence of control lysates, indicating binding of endogenous transcription factors to the ARE. […] In contrast, the band was totally abrogated in the presence of excess unlabeled probe. […]

T1 sequence (P02769 25-607): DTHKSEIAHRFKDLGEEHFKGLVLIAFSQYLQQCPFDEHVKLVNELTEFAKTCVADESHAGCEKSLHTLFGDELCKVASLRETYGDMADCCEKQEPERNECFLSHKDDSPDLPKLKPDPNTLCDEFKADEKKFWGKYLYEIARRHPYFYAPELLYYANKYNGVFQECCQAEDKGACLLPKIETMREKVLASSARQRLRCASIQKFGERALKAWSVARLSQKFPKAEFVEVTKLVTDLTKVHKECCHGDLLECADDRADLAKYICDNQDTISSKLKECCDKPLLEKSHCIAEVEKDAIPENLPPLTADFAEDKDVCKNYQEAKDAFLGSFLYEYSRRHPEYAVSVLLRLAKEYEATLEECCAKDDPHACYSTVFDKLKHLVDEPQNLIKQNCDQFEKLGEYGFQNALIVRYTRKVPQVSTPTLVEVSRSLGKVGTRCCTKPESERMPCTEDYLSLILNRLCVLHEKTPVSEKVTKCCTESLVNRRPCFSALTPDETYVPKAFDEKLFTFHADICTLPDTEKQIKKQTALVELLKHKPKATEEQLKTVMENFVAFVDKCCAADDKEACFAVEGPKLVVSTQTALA

For `CC(C)c1cc2c(c(O)c1O)[C@@]1(C(=O)O)CCCC(C)(C)[C@@H]1CC2` [CA, carnosic acid], the “induction of phase 2 enzymes HO-1 and γ-GCS in brain” value in the assay on HO-1 and γ-GCS is “significant induction”. Besides, in the assay with GSH [1], the “ratio of GSH/GSSG in brain” value is on record as “increased” and the “total GSH+GSSG in brain” value was “increased”. Further, in assay [2], the “BSA adduct signal after pretreatment with NEM” value is reported as “depressed the streptavidin signal in a dose-dependent manner”.
As to `COC(=O)CCCCC/C=C1/C(=O)C=C[C@H]1CCCCCCc1ccc(C)cc1` [NEPP11], in the assay on GSH [3], the “total GSH levels” value is given as “did not deplete GSH levels; also recorded: transiently increased”. Besides, the “shifted ARE probe band intensity” value with ARE probe is “significant increase in the intensity of this band”.
